Experimental data as given in publication PMC8205030, “Methoxy and bromo scans on N-(5-methoxyphenyl) methoxybenzenesulphonamides reveal potent cytotoxic compounds, especially against the human breast adenocarcinoma MCF7 cell line” (Journal of Enzyme Inhibition and Medicinal Chemistry, 2021).
Like-named read-outs stand apart in the source and are kept apart here.

Columns and labels:
[1] = tested on: HT-29 (human colon carcinoma) cells; assay: Cell growth assay (XTT), HT-29, alone or with verapamil; assay type: cell-based
[2] = tested on: microtubule network of HeLa cells; assay: Immunofluorescence of microtubule network, HeLa; assay type: cell-based, human; conditions: 175 nM, 72 h, confocal microscopy
Experimental: MCF7, HeLa, and HT-29 cells were grown on round glass coverslips coated with poly-L-lysine (12 mm diameter). To reach appropriate cell confluence, coverslips were manipulated in 6-well plates (3 coverslips/well) seeding 3 ml/well of cells in the exponential growth phase at 2 × 10^4 cells/mL. After 24 h incubation, cells were treated with compound 25 at 175 nM and incubated for 72 h. Cells were washed with PBS, fixed with 4% formaldehyde in PBS for 10 min, permeabilized with 0.5% Triton X-100 (Boehringer Mannheim, Ingelheimam Rhein, Germany) in PBS for 10 min, and blocked with 10% BSA in PBS for 30 min. Then, coverslips were incubated with anti-α-tubulin mouse monoclonal antibody (diluted 1:200 in 3% BSA/PBS) (Sigma-Aldrich Co.) and anti-SQSTM1/p62 rabbit monoclonal antibody (diluted 1:100 in 3% BSA/PBS) (Abcam) for 1 h 30 min. After PBS washing, coverslips were incubated with fluorescent secondary antibodies Alexa Fluor 488 goat anti-mouse IgG and Alexa Fluor 594 anti-rabbit (both diluted 1:400 in 1% BSA/PBS) (Molecular Probes, Invitrogen, Thermo Fischer Scientific) for 1 h in darkness. […] Cells were analysed by confocal microscopy using a LEICA SP5 microscope DMI-6000V model coupled to a LEICA LAS AF software computer.

[3] = tested on: p-62 in MCF7 cells; assay: Western blot of autophagosome marker p-62, MCF7; assay type: cell-based, human; conditions: MCF7, 175 nM, 24 h
Experimental: MCF7, HeLa and HT-29 cells in an exponential growth phase at 2 × 10^4 cells/mL were seeded in Petri dishes (20 × 100 mm) (10 ml/dish). After 24 h incubation, cells were treated with compound 25 at 175 nM, and the levels of p-62 in treated and untreated cells were measured at 24 h post-treatment. The culture medium was removed, cells were washed with PBS and resuspended in 1 ml lysis buffer (50 mM Tris, 130 mM NaCl, 1 mM EDTA, 1% Triton X-100) containing protease inhibitors (Complete, Roche Applied Science, Indianapolis). Cells were harvested and incubated with lysis buffer for 30 min at 4 °C in constant agitation. Cell extracts were centrifuged at 12,000 rpm for 15 min at 4 °C and the supernatants were stored at −80 °C. Protein concentrations were determined using Bradford (BioRad, Hercules, CA) method taking BSA (Bovine Serum Albumin) as standard. Protein extracts were used for electrophoresis mixing with loading buffer (4% SDS, 0.05% bromophenol blue, 20% glycerine, 2% β-mercaptoethanol, and Tris 100 mM at pH 6.8). Proteins were then denatured at 95 °C for 7 min. Protein samples (50 μg/lane) were subjected to electrophoresis on 8% acrylamide gel and SDS-PAGE running buffer at constant voltage (140 V). Then, acrylamide gels were transferred to a PVDF membrane (Merck Millipore, Burlington, Massachusetts, USA) using a semi-dry transfer system for 30 min at constant voltage (15 V). […]

IC50 ([1]; 72 h, in the presence of Pgp/MDR1 inhibitor verapamil (10 µM), read-out: Antiproliferative activity IC50 HT-29 Verap): 85 nM
IC50 ([1]; Homo sapiens, HT-29, 72 h drug exposure, XTT, read-out: Antiproliferative activity IC50 HT-29): 97 nM
SMILES: COc1ccc(S(=O)(=O)N(CC#N)c2cc(OC)c(Br)cc2OC)cc1 [Compound 25, N-(4-bromo-2,5-dimethoxyphenyl)-N-(cyanomethyl)-4-methoxybenzenesulphonamide]
Effect on microtubule network [2]: disrupted the microtubule network
p-62 levels [3]: decay in p-62 levels
